These results are taken from ChEMBL document CHEMBL4184157, “Phenoxypropanolamine derivatives as selective inhibitors of the 20S proteasome β1 and β5 subunits” (Bioorg Med Chem Lett, 2017).

Activity calls are given as the source filed them. The calls are words filed in the database; no cut-off is given here.

The nature of test [1]: Inhibition of chymotrypsin-like activity of rabbit erythrocyte 20S proteasome beta5 subunit using Suc-LLVY-AMC as substrate preincubated for 15 mins followed by substrate addition measured after 45 mins by fluorescence assay. Details: species or system Oryctolagus cuniculus.
Test [2] in a line: Inhibition of caspase-like activity of rabbit erythrocyte 20S proteasome beta1 subunit using Z-LLE-betaNA as substrate preincubated for 15 mins followed by substrate addition measured after 45 mins by fluorescence assay. Set-up: species or system Oryctolagus cuniculus.
The species named for test [3] is Oryctolagus cuniculus. The test is described as follows: Inhibition of trypsin-like activity of rabbit erythrocyte 20S proteasome beta2 subunit at 100 uM using BocLRR-AMC as substrate preincubated for 5 mins followed by substrate addition measured after 45 mins by fluorescence assay.
Test [4] is filed under the species Oryctolagus cuniculus. The test is described as follows: Inhibition of chymotrypsin-like activity of rabbit erythrocyte 20S proteasome beta5 subunit at 100 uM using Suc-LLVY-AMC as substrate preincubated for 15 mins followed by substrate addition measured after 45 mins by fluorescence assay.
The species entered for test [5] is Oryctolagus cuniculus. The test is described as follows: Inhibition of caspase-like activity of rabbit erythrocyte 20S proteasome beta1 subunit at 100 uM using Z-LLE-betaNA as substrate preincubated for 15 mins followed by substrate addition measured after 45 mins by fluorescence assay.
Test [6] has as its target T1, Calpain-1 catalytic subunit (Homo sapiens) (UniProt P07384).
T1 sequence (whole entry): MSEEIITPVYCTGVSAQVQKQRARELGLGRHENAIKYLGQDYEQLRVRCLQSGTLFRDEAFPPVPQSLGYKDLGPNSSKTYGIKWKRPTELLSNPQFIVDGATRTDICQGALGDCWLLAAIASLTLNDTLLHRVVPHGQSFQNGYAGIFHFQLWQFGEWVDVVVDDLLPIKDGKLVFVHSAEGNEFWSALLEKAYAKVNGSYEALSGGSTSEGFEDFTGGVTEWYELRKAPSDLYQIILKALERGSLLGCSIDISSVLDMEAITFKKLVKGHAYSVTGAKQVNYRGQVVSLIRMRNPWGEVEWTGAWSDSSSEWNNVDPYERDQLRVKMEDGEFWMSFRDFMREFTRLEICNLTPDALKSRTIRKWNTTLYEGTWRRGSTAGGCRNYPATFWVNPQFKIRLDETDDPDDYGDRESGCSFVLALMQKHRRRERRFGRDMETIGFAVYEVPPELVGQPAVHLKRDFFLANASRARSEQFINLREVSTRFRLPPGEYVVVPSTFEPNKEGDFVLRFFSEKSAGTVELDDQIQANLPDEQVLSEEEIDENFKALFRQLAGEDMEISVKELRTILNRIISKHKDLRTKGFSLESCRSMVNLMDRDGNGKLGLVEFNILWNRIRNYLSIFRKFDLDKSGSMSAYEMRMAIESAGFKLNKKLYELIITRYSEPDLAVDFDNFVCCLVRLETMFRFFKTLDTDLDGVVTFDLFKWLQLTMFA
The test is described as follows: Inhibition of human erythrocyte calpain 1 protease using Suc-LLVY-AMC as substrate by fluorescence assay.

The target of test [7] is Cathepsin B (Homo sapiens) (UniProt P07858). The experiment in a line: Inhibition of human hepatocyte cathepsin B protease using Z-RR-AMC as substrate by fluorescence assay.
For test [8], the system named is HeLa. The experiment in a line: Antiproliferative activity against human HeLa cells assessed as fragmented nuclei at 50 uM after 72 hrs by microscopic method. It is filed as functional, cell-based.
Test [9] has as its system HeLa. The experiment in a line: Antiproliferative activity against human HeLa cells at 10 uM after 72 hrs by microscopic method. It is filed as functional, cell-based.
Test [10] relates to Rattus norvegicus. The test is described as follows: In vivo antiproliferative activity against ip dosed Wistar rat bone marrow cells from femora assessed as inhibition of cell division measured by counting metaphase plates by light microscopic method. In kind it is functional, organism-based.
In test [11] the test system is HeLa. The experiment in a line: Antiproliferative activity against human HeLa cells after 72 hrs by XTT assay. It is filed as functional, cell-based.
Test [12] relates to HeLa. The test is described as follows: Cytotoxicity against human HeLa cells at 10 uM after 72 hrs by XTT assay. In kind it is functional, cell-based.
In test [13] the test system is Rattus norvegicus. The test is described as follows: In vivo antiproliferative activity against Wistar rat bone marrow cells from femora assessed as inhibition of cell division measured by counting metaphase plates administered at 2 mg per rat, ip by light microscopic method. Details: scale not given: the % may be the effect or the level left.
Test [14] relates to Rattus norvegicus. The experiment in a line: In vivo antiproliferative activity against Wistar rat bone marrow cells from femora assessed as inhibition of cell division measured by counting metaphase plates administered at 0.2 mg per rat, ip by light microscopic method. Set-up: scale not given: the % may be the effect or the level left.

As for `OC(CNCC1(c2cccs2)CCCCC1)COc1ccc(Cl)cc1` (stereo not drawn), the IC50 in test [1] was 18 µM; in test [2], 12.8 µM. Also, in the test listed under Oryctolagus cuniculus [3], the inhibition entry was “inactive”.

As to `OC(CNCC1(c2cccs2)CCCCC1)COc1ccccc1` (stereo not drawn), the concentration for half-maximal inhibition (IC50) turned out to be 14.9 µM in test [1] and 18.1 µM in [2]. Further, in the test filed under Oryctolagus cuniculus [3], the inhibition result is “inactive”.

Turning to `COc1ccccc1OCC(O)CNCC1(c2cccs2)CCOCC1` (stereo not drawn), the inhibition result in the test listed under Oryctolagus cuniculus [4], in the test listed under Oryctolagus cuniculus [3] and in the test filed under Oryctolagus cuniculus [5] was “inactive” in each case.

Turning to `OC(CNCC1(c2cccs2)CCOCC1)COc1ccc(Cl)cc1` (stereo not drawn), in [1], the IC50 was found to be 40 µM. In addition, the inhibition in the test filed under Oryctolagus cuniculus [3] worked out at 53%. Also, the inhibition result in the test listed under Oryctolagus cuniculus [5] was “inactive”.

Regarding `Cc1ccc(OCC(O)CNCC2(c3cccs3)CCCC2)cc1` (stereo not drawn), the values for the IC50 in test [1] and in test [2] were 15.4 µM and 24.2 µM, respectively. This molecule yielded an inhibition in the test listed under Oryctolagus cuniculus [3] of 38%.

`Cc1ccc(OCC(O)CNCC2(c3cccs3)CCOCC2)cc1` (stereo not drawn) came in with an IC50 in test [1] of 80 µM. The molecule further registered an inhibition in the test listed under Oryctolagus cuniculus [3] of 49%. In addition, in the test filed under Oryctolagus cuniculus [5], the inhibition entry is “inactive”.

With `COc1ccccc1OCC(O)CNCC1(c2cccs2)CCCC1` (stereo not drawn), the IC50 was determined as 37.2 µM in [1] and 36 µM in test [2]. Besides, in the test listed under Oryctolagus cuniculus [3], the inhibition came out at 48%.

In turn, `CC1(C)OC(=O)c2c1ccn(CCc1ccccc1)c2=O` registered an IC50 in [2] of 48 µM.

In the case of `O=C(O)CSc1cc(NS(=O)(=O)c2cccs2)c2ccccc2c1O`, in test [1], the concentration for half-maximal inhibition (IC50) was found to be 3 µM.

As for `Cc1ccc(OCC(O)CNCC2(c3cccs3)CCCCC2)cc1` (stereo not drawn), the IC50 in test [1] was 15.5 µM; in test [2] it was 30 µM. In addition, in the test filed under Oryctolagus cuniculus [3], the inhibition was 36%.

Take `OC(CNCC1(c2cccs2)CCCC1)COc1ccc(Cl)cc1` (stereo not drawn): the results for the IC50 in test [1] and in [2] were 15.8 µM and 18 µM, respectively. This molecule came in with an inhibition in the test listed under Oryctolagus cuniculus [3] of 42%. For the same molecule, the inhibition result in [6] and in [7] was “inactive” each time. Further, the outcome in the test on HeLa [8] was Active. For the same molecule, the result in the test on HeLa [9] and in the test with HeLa [12] was inactive. Besides, the Activity entry is “Dose-dependent effect” with Rattus norvegicus [10], “Dose-dependent effect” in the test on HeLa [11], 75% in the test with Rattus norvegicus [13] and 50% in the test on Rattus norvegicus [14].

As for `OC(CNCC1(c2cccs2)CCCC1)COc1ccccc1` (stereo not drawn), the 50% inhibitory concentration (IC50) was determined as 19.3 µM in test [1] and 66.5 µM in test [2]. Besides, in the test filed under Oryctolagus cuniculus [3], the inhibition was determined as 41%. Besides, the inhibition entry in [6] and in test [7] was “inactive” in each case.

`NCC1(c2cccs2)CCCC1` showed an inhibition in the test listed under Oryctolagus cuniculus [4] of 26%. Besides, the inhibition entry in the test listed under Oryctolagus cuniculus [3] and in the test filed under Oryctolagus cuniculus [5] was “inactive” throughout.

For `COc1ccccc1OCC(O)CNCC1(c2cccs2)CCCCC1` (stereo not drawn), the values for the IC50 in [1] and in [2] were 17.1 µM and 22 µM, respectively. For the same molecule, in the test filed under Oryctolagus cuniculus [3], the inhibition stood at 40%.

As for `NCC1(c2cccs2)CCCCC1`, the inhibition entry in the test filed under Oryctolagus cuniculus [4], in the test filed under Oryctolagus cuniculus [3] and in the test listed under Oryctolagus cuniculus [5] was “inactive” throughout.

As for `NCC1(c2cccs2)CCOCC1`, the inhibition result in the test filed under Oryctolagus cuniculus [4], in the test filed under Oryctolagus cuniculus [3] and in the test filed under Oryctolagus cuniculus [5] was “inactive” in each case.

With `OC(CNCC1(c2cccs2)CCOCC1)COc1ccccc1` (stereo not drawn), the inhibition in the test listed under Oryctolagus cuniculus [4] was determined as 31%; in the test listed under Oryctolagus cuniculus [3], 39%; in the test listed under Oryctolagus cuniculus [5], 36%.
